This passage reports EC50 results from US11760754B2, “Heterocyclic mitochondrial activity inhibitors and uses thereof” (UNIVERSITÉ DE MONTRÉAL, priority 2017, dated 2023).

One test has as its system OCI-AML3 cells. The experiment in a line: OCI-AML3 cell growth inhibition, dose-response viability assay (CellTiterGlo). The class given is cell-based. The following applies: Homo sapiens, OCI-AML-3, 144 h, read-out: AML-3 EC50. The essentials:
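OCI-AML3 cells seeded, then exposed to compound in serial dilutions from 10 μM to 0.5 nM, in duplicate or quadruplicate. Viability read by CellTiter-Glo.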

For the next test, the system named is MLL-AF9 cells. Nature of the test: MLL-AF9 leukemia cell growth inhibition, dose-response viability assay (CellTiterGlo). The class given is cell-based, murine. The following applies: Mus musculus, MLL-AF9, 120 h, read-out: MLL-AF9 EC50. The essentials: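 Murine MLL-AF9 leukemia cells (female, MSCV MLL-AF9 IRES Puro transduced) were treated with serial compound dilutions from 10 μM to 0.5 nM in duplicates or quadruplicates. Viability read by CellTiterGlo dose-response.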

Bounds are passed on as bounds.

As usually defined, the EC50 is the concentration at which the effect is half-maximal. For the compound `FC(F)(F)c1ccc(/C=C/c2nc(COc3ccc(CCCn4ccnn4)cc3)co2)c(-n2nccn2)c1` [Compound 106, (E)-4-((4-(3-(1H-1,2,3-triazol-1-yl)propyl)phenoxy)methyl)-2-(2-(2H-1,2,3-triazol-2-yl)-4-(trifluoromethyl)styryl)oxazole], the EC50 in the test with OCI-AML3 cells and with MLL-AF9 cells was 1000 to 10000 nM in each case.

Take `Fc1cc(C(F)(F)F)ccc1/C=C/c1nc(COc2ccc(CCCCc3nccs3)cc2)co1` [Compound 107, (E)-2-(2-fluoro-4-(trifluoromethyl)styryl)-4-((4-(4-(thiazol-2-yl)butyl)phenoxy)methyl) oxazole]: the EC50 in the test on OCI-AML3 cells and in the test with MLL-AF9 cells was 1000 to 10000 nM each time.

Turning to `Fc1cc(C(F)(F)F)ccc1/C=C/c1nc(COc2ccc(CCCCc3cncnc3)cc2)co1` [Compound 108, (E)-2-(2-fluoro-4-(trifluoromethyl)styryl)-4-((4-(4-(pyrimidin-5-yl)butyl)phenoxy)methyl)oxazole], the EC50 in the test on OCI-AML3 cells and in the test with MLL-AF9 cells was 1000 to 10000 nM each time.

`Fc1cc(C(F)(F)F)ccc1/C=C/c1nc(COc2ccc(OCCCn3ccnn3)cc2)co1` [Compound 109, (E)-4-((4-(3-(1H-1,2,3-triazol-1-yl)propoxy)phenoxy)methyl)-2-(2-fluoro-4-(trifluoromethyl)styryl)oxazole]: the EC50 was in the range of 500 to 1000 nM in the test with OCI-AML3 cells and 100 to 500 nM in the test with MLL-AF9 cells.

On to `Fc1cc(C(F)(F)F)ccc1/C=C/c1nc(COc2ccc(CCCCn3ncnn3)cc2)co1` [Compound 110, (E)-4-((4-(4-(2H-tetrazol-2-yl)butyl)phenoxy)methyl)-2-(2-fluoro-4-(trifluoromethyl)styryl)oxazole], for which the EC50 with OCI-AML3 cells and in the test with MLL-AF9 cells was 1000 to 10000 nM in each case.

Regarding `Fc1cc(C(F)(F)F)ccc1/C=C/c1nc(/C=C/c2ccc(CCCCn3ccnn3)cc2)co1` [Compound 111, 4-((E)-4-(4-(1H-1,2,3-triazol-1-yl)butyl)styryl)-2-((E)-2-fluoro-4-(trifluoromethyl)styryl) oxazole], the EC50 fell in the range of 1000 to 10000 nM in the test with OCI-AML3 cells and 500 to 1000 nM with MLL-AF9 cells.

For the compound `Fc1ccc2oc(-c3nc(COc4ccc(CCCCn5ccnn5)cc4)co3)cc2c1` [Compound 112, 4-((4-(4-(1H-1,2,3-triazol-1-yl)butyl)phenoxy)methyl)-2-(5-fluorobenzofuran-2-yl) oxazole], the figures for the EC50 in the test with OCI-AML3 cells and with MLL-AF9 cells were 100 to 500 nM and 50 to 100 nM, respectively.

As for `Fc1ccc2sc(-c3nc(COc4ccc(CCCCn5ccnn5)cc4)co3)cc2c1` [Compound 113, 4-((4-(4-(1H-1,2,3-triazol-1-yl)butyl)phenoxy)methyl)-2-(5-fluorobenzo[b]thiophen-2-yl)oxazole], the results for the EC50 in the test on OCI-AML3 cells and in the test on MLL-AF9 cells were 500 to 1000 nM and 100 to 500 nM, respectively.

Take `CCOC(=O)c1cn(CCCCc2ccc(OCc3coc(/C=C/c4ccc(C(F)(F)F)cc4)n3)cc2)nn1` [Compound 114, ethyl (E)-1-(4-(4-((2-(4-(trifluoromethyl)styryl)oxazol-4-yl)methoxy)phenyl)butyl)-1H-1,2,3-triazole-4-carboxylate]: the EC50 with OCI-AML3 cells and with MLL-AF9 cells was 1000 to 10000 nM each time.

`Fc1cc(C(F)(F)F)ccc1/C=C/c1nc(COc2ccc(COCCn3ccnn3)cc2)co1` [Compound 115, (E)-4-((4-((2-(1H-1,2,3-triazol-1-yl)ethoxy)methyl)phenoxy)methyl)-2-(2-fluoro-4-(trifluoromethyl)styryl)oxazole]: the EC50 with OCI-AML3 cells was in the range of 500 to 1000 nM; with MLL-AF9 cells, 100 to 500 nM.

In the case of `Fc1cc(Cl)ccc1/C=C/c1nc(COc2ccc(CCCCn3ccnn3)cc2)co1` [Compound 116, (E)-4-((4-(4-(1H-1,2,3-triazol-1-yl)butyl)phenoxy)methyl)-2-(4-chloro-2-fluorostyryl)oxazole], the EC50 with OCI-AML3 cells and in the test on MLL-AF9 cells was 50 to 100 nM in each case.

Consider `Fc1ccc(/C=C/c2nc(COc3ccc(CCCCn4ccnn4)cc3)co2)c(Cl)c1` [Compound 117, (E)-4-((4-(4-(1H-1,2,3-triazol-1-yl)butyl)phenoxy)methyl)-2-(2-chloro-4-fluorostyryl)oxazole], for which the 50% effective concentration (EC50) with OCI-AML3 cells and in the test on MLL-AF9 cells was 100 to 500 nM each time.

Take `Clc1ccccc1/C=C/c1nc(COc2ccc(CCCCn3ccnn3)cc2)co1` [Compound 118, (E)-4-((4-(4-(1H-1,2,3-triazol-1-yl)butyl)phenoxy)methyl)-2-(2-chlorostyryl)oxazole]: the EC50 with OCI-AML3 cells and with MLL-AF9 cells was 100 to 500 nM throughout.

For the compound `Clc1ccc(/C=C/c2nc(COc3ccc(CCCCn4ccnn4)cc3)co2)c(Cl)c1` [Compound 119, (E)-4-((4-(4-(1H-1,2,3-triazol-1-yl)butyl)phenoxy)methyl)-2-(2,4-dichlorostyryl)oxazole], the EC50 in the test on OCI-AML3 cells and with MLL-AF9 cells was 100 to 500 nM each time.

Take `Fc1cc(/C=C/c2nc(COc3ccc(CCCCn4ccnn4)cc3)co2)cc(F)c1F` [Compound 120, (E)-4-((4-(4-(1H-1,2,3-triazol-1-yl)butyl)phenoxy)methyl)-2-(3,4,5-trifluorostyryl)oxazole]: the figures for the EC50 with OCI-AML3 cells and with MLL-AF9 cells were 100 to 500 nM and less than 50 nM, respectively.

As to `Fc1ccc(/C=C/c2nc(COc3ccc(CCCCn4ccnn4)cc3)co2)cc1F` [Compound 121, (E)-4-((4-(4-(1H-1,2,3-triazol-1-yl)butyl)phenoxy)methyl)-2-(3,4-difluorostyryl)oxazole], the EC50 in the test with OCI-AML3 cells and in the test on MLL-AF9 cells was 50 to 100 nM in each case.

Consider `N#Cc1ccc(/C=C/c2nc(COc3ccc(CCCCn4ccnn4)cc3)co2)c(F)c1` [Compound 122, (E)-4-(2-(4-((4-(4-(1H-1,2,3-triazol-1-yl)butyl)phenoxy)methyl)oxazol-2-yl)vinyl)-3-fluorobenzonitrile], for which the EC50 in the test with OCI-AML3 cells and in the test on MLL-AF9 cells was less than 50 nM in each case.

Turning to `CS(=O)(=O)c1ccc(/C=C/c2nc(COc3ccc(CCCCn4ccnn4)cc3)co2)c(F)c1` [Compound 123, (E)-4-((4-(4-(1H-1,2,3-triazol-1-yl)butyl)phenoxy)methyl)-2-(2-fluoro-4-(methylsulfonyl)styryl)oxazole], the EC50 with OCI-AML3 cells and in the test on MLL-AF9 cells was 100 to 500 nM in each case.

On to `Fc1cc(OC(F)(F)F)ccc1/C=C/c1nc(COc2ccc(CCCCn3ccnn3)cc2)co1` [Compound 124, (E)-4-((4-(4-(1H-1,2,3-triazol-1-yl)butyl)phenoxy)methyl)-2-(2-fluoro-4-(trifluoromethoxy)styryl)oxazole], for which the values for the EC50 in the test on OCI-AML3 cells and in the test with MLL-AF9 cells were less than 50 nM and 50 to 100 nM, respectively.

Turning to `COC(=O)c1ccc(/C=C/c2nc(COc3ccc(CCCCn4ccnn4)cc3)co2)c(F)c1` [Compound 125, methyl (E)-4-(2-(4-((4-(4-(1H-1,2,3-triazol-1-yl)butyl)phenoxy)methyl)oxazol-2-yl)vinyl)-3-fluorobenzoate], the results for the EC50 in the test on OCI-AML3 cells and with MLL-AF9 cells were 50 to 100 nM and 100 to 500 nM, respectively.

Take `O=[N+]([O-])c1cc(F)cc2cc(-c3nc(COc4ccc(CCCCn5ccnn5)cc4)co3)[nH]c12` [Compound 126, 4-((4-(4-(1H-1,2,3-triazol-1-yl)butyl)phenoxy)methyl)-2-(5-fluoro-7-nitro-1H-indol-2-yl)oxazole]: the EC50 was 1000 to 10000 nM in the test with OCI-AML3 cells and greater than 10000 nM in the test on MLL-AF9 cells.

With `Fc1ccc2cc(-c3nc(COc4ccc(CCCCn5ccnn5)cc4)co3)[nH]c2c1` [Compound 127, 4-((4-(4-(H-1,2,3-triazol-1-yl)butyl)phenoxy)methyl)-2-(6-fluoro-1H-indol-2-yl)oxazole], the EC50 in the test with OCI-AML3 cells and with MLL-AF9 cells was less than 50 nM each time.

Take `Fc1cc(F)c2cc(-c3nc(COc4ccc(CCCCn5ccnn5)cc4)co3)[nH]c2c1` [Compound 128, 4-((4-(4-(1H-1,2,3-triazol-1-yl)butyl)phenoxy)methyl)-2-(4,6-difluoro-1H-indol-2-yl)oxazole]: the EC50 with OCI-AML3 cells and with MLL-AF9 cells was less than 50 nM throughout.

Take `O=[N+]([O-])c1ccc2cc(-c3nc(COc4ccc(CCCCn5ccnn5)cc4)co3)[nH]c2c1` [Compound 129, 4-((4-(4-(1H-1,2,3-triazol-1-yl)butyl)phenoxy)methyl)-2-(6-nitro-1H-indol-2-yl)oxazole]: the EC50 in the test with OCI-AML3 cells and in the test on MLL-AF9 cells was less than 50 nM in each case.

With `Fc1cc(C(F)(F)F)ccc1/C=C/c1nc(COc2ccc(SCCCn3ccnn3)cc2)co1` [Compound 130, (E)-4-((4-((3-(1H-1,2,3-triazol-1-yl)propyl)thio)phenoxy)methyl)-2-(2-fluoro-4-(trifluoromethyl)styryl)oxazole], the 50% effective concentration (EC50) in the test with OCI-AML3 cells and with MLL-AF9 cells was less than 50 nM in each case.

As to `Fc1cc(C(F)(F)F)ccc1/C=C/c1nc(COc2ccc(CCCCn3ccnn3)cc2)cs1` [Compound 131, (E)-4-((4-(4-(1H-1,2,3-triazol-1-yl)butyl)phenoxy)methyl)-2-(2-fluoro-4-(trifluoromethyl)styryl)thiazole], the EC50 in the test with OCI-AML3 cells and in the test with MLL-AF9 cells was 100 to 500 nM each time.

As to `Fc1cc(C(F)(F)F)ccc1/C=C/c1nc(CSc2ccc(CCCn3ccnn3)cc2)co1` [Compound 132, (E)-4-(((4-(3-(1H-1,2,3-triazol-1-yl)propyl)phenyl)thio)methyl)-2-(2-fluoro-4-(trifluoromethyl)styryl)oxazole], the EC50 with OCI-AML3 cells was in the range of 1000 to 10000 nM; in the test on MLL-AF9 cells, 500 to 1000 nM.

In the case of `Fc1cc(C(F)(F)F)ccc1/C=C/c1nc(COc2ccc(CCCCn3ccnn3)nc2)co1` [Compound 133, (E)-4-(((6-(4-(1H-1,2,3-triazol-1-yl)butyl)pyridin-3-yl)oxy)methyl)-2-(2-fluoro-4-(trifluoromethyl)styryl)oxazole], the EC50 with OCI-AML3 cells fell in the range of 100 to 500 nM; with MLL-AF9 cells, 50 to 100 nM.

As for `Fc1cc(C(F)(F)F)ccc1/C=C/c1nc(Cc2ccc(CCCCn3ccnn3)cc2)co1` [Compound 134, (E)-4-(4-(4-(1H-1,2,3-triazol-1-yl)butyl)benzyl)-2-(2-fluoro-4-(trifluoromethyl)styryl)oxazole], the EC50 in the test on OCI-AML3 cells was 1000 to 10000 nM; in the test on MLL-AF9 cells, 500 to 1000 nM.
